These results are taken from US5508275A, “Lipid-selective antioxidants and their preparation and use” (Hoechst Aktiengesellschaft, priority 1990, dated 1996).

Counter-ions that a name gives are not always drawn.

A short description of data set [1]: Solubility in water and olive oil (Method III). As to the method: a) Preparation of olive oil or aqueous solutions. 1 ml of olive oil or I ml of double-distilled water (or dilute NaOH pH=7.6) was added to 1 mg or 10 mg or 50 mg of the respective compound at 37° C. and it was checked whether a clear solution was obtained. The optionally centrifuged and decanted olive oil solutions were heated for 5 minutes using a Bunsen burner and the degree of browning of the olive oil was determined. […] Samples having poor protective action are given a (*) in the table (see below).

The subject of data set [2] is thrombus formation in rats. In words: Laser-induced thrombosis in rats in vivo (Method VIII). The conditions noted are these: 30 mg/kg oral, laser induction 60 min after administration. Also noted: species or system rat. As to the method: The experimental procedure was carried out in every detail as described in U.S. Pat. No. 4,694,024. Laser induction took place 60 min after oral administration of the antioxidants.

Setting [3] is: olive oil, organic solvent or mixture.

As to `O=C(O)CCCC[C@@H](S)CCS` (racemic) [Dihydrolipoic acid, Na salt, Dihydrolipoic acid, reference compound], the solubility in data set [1] (setting [3]) is less than 0.1 mg/mL; in data set [1] (water) it was greater than 10 mg/mL.

`O=C(O)C(S)C(S)C(=O)O` (centres unmarked) [2,3-Mercaptosuccinic acid, reference compound]: the solubility was less than 0.1 mg/mL in data set [1] (setting [3]) and greater than 10 mg/mL in data set [1] (water).

As for `CC(C)(Sc1cc(C(C)(C)C)c(O)c(C(C)(C)C)c1)Sc1cc(C(C)(C)C)c(O)c(C(C)(C)C)c1` [4,4'-(Isopropylidenedithio)bis[2,6-di-tert.-butylphenol], reference compound], the “Reduction of thrombus formation” value in data set [2] was found to be 6%.

As for `Cc1c(C)c2c(c(C)c1O)CCC(C)(C(=O)O)O2` (centres unmarked) [6-Hydroxy-2,5,7,8-tetramethylchroman-2-carboxylic acid, reference compound], the values for the solubility in data set [1] (setting [3]) and in data set [1] (water) were less than 0.1 mg/mL and greater than 10 mg/mL, respectively.

Regarding `CCCCCCCCCCCCCCCC(=O)OC[C@H](O)[C@H]1OC(=O)C(O)=C1O` [Ascorbyl palmitate, reference compound], the solubility is greater than 0.1 mg/mL in data set [1] (setting [3]) and less than 0.1 mg/mL in data set [1] (water).

As for `O[C@H](CS)[C@@H](O)CS` [Dithioerythritol, reference compound], the values for the solubility in data set [1] (setting [3]) and in data set [1] (water) were less than 0.1 mg/mL and greater than 10 mg/mL, respectively.

As to `Cc1c(C)c2c(c(C)c1O)CCC(C)(C(=O)NCCCNC(=O)CC[C@@H](C)[C@H]1CC[C@H]3[C@@H]4[C@H](O)C[C@@H]5C[C@H](O)CC[C@]5(C)[C@H]4C[C@H](O)[C@]13C)O2` (some centres unmarked) [Example 1], the solubility is greater than 10 mg/mL in data set [1] (setting [3]) and greater than 0.1 mg/mL in data set [1] (water). The “Reduction of thrombus formation” value in data set [2] came to 16%.

Regarding `Cc1c(C)c2c(c(C)c1O)CCC(C)(C(=O)NCCO[C@H]1CC[C@@]3(C)[C@@H](C1)C[C@@H](O)[C@@H]1[C@@H]3C[C@H](O)[C@]3(C)[C@@H]([C@H](C)CCC(=O)O)CC[C@@H]13)O2` (some centres unmarked) [Example 3], the solubility in data set [1] (setting [3]) was greater than 1 mg/mL; in data set [1] (water) it was less than 0.1 mg/mL. The “Reduction of thrombus formation” value in data set [2] was 11%.

On to `CCCCCCNC(=O)C1(C)CCc2c(C)c(O)c(C)c(C)c2O1` (centres unmarked) [Example 4], for which the solubility in data set [1] (setting [3]) is greater than 10 mg/mL; in data set [1] (water), greater than 0.1 mg/mL.

With `CCCCCCC(=O)NCCCNC(=O)C1(C)CCc2c(C)c(O)c(C)c(C)c2O1` (centres unmarked) [Example 5], the solubility is greater than 10 mg/mL in data set [1] (setting [3]) and less than 0.1 mg/mL in data set [1] (water).

For the compound `CCCCCCCCCCCCCCCCCCNC(=O)C1(C)CCc2c(C)c(O)c(C)c(C)c2O1` (centres unmarked) [Example 6], the solubility in data set [1] (setting [3]) is greater than 10 mg/mL; in data set [1] (water), less than 0.1 mg/mL.

As for `CCCCCCCCCCCCCCCC(=O)NCCCNC(=O)C1(C)CCc2c(C)c(O)c(C)c(C)c2O1` (centres unmarked) [Example 7], the solubility was greater than 10 mg/mL in data set [1] (setting [3]) and less than 0.1 mg/mL in data set [1] (water).

Turning to `Cc1c(C)c2c(c(C)c1O)CCC(C)(C(=O)NC1CCCCC1)O2` (centres unmarked) [Example 8], the solubility in data set [1] (setting [3]) is greater than 10 mg/mL; in data set [1] (water), less than 0.1 mg/mL.

For `CC(C)CCC[C@@H](C)[C@H]1CC[C@H]2[C@@H]3CC=C4C[C@@H](OCCOCc5cc(C(C)(C)C)c(O)c(C(C)(C)C)c5)CC[C@]4(C)[C@H]3CC[C@]12C` [Example 13], the solubility was greater than 50 mg/mL in data set [1] (setting [3]) and less than 0.1 mg/mL in data set [1] (water). Further, the “Reduction of thrombus formation” value in data set [2] came to 17%.

With `CC(C)(C)c1cc(C2SCCC(CCCCC(=O)O)S2)cc(C(C)(C)C)c1O` (centres unmarked) [Example 19], the solubility in data set [1] (setting [3]) was greater than 50 mg/mL; in data set [1] (water), less than 0.1 mg/mL.

For `CC(C)(C)OC(=O)CCCCC(CCSCc1cc(C(C)(C)C)c(O)c(C(C)(C)C)c1)SCc1cc(C(C)(C)C)c(O)c(C(C)(C)C)c1` (centres unmarked) [Example 20], the solubility in data set [1] (setting [3]) was greater than 50 mg/mL; in data set [1] (water), less than 0.1 mg/mL.

In the case of `CCCCCCCCCCCCCCCCCCOCC(O)COCc1cc(C(C)(C)C)c(O)c(C(C)(C)C)c1` (centres unmarked) [Example 21], the solubility in data set [1] (setting [3]) is greater than 50 mg/mL; in data set [1] (water), less than 0.1 mg/mL.

In the case of `CCCCCCCCCCCCCCCCCCOCC(CO)OC(=O)c1cc(C(C)(C)C)c(O)c(C(C)(C)C)c1` (centres unmarked) [Example 22], the solubility in data set [1] (setting [3]) is greater than 50 mg/mL; in data set [1] (water), less than 0.1 mg/mL.

On to `CCCCCCCCCCCCCCCCCCOCC(O)COC(=O)c1cc(C(C)(C)C)c(O)c(C(C)(C)C)c1` (centres unmarked) [Example 23], for which the figures for the solubility in data set [1] (setting [3]) and in data set [1] (water) were greater than 50 mg/mL and less than 0.1 mg/mL, respectively.

`CCCCCCCCCCCCCCCCCCCC(O)C(Cc1cc(C(C)(C)C)c(O)c(C(C)(C)C)c1)C(=O)OCC` (centres unmarked) [Example 24]: the solubility in data set [1] (setting [3]) is greater than 50 mg/mL; in data set [1] (water) it was less than 0.1 mg/mL.

In the case of `CCCCCCCCCCCCCCCCCCCC(O)C(CO)Cc1cc(C(C)(C)C)c(O)c(C(C)(C)C)c1` (centres unmarked) [Example 25], the values for the solubility in data set [1] (setting [3]) and in data set [1] (water) were greater than 50 mg/mL and less than 0.1 mg/mL, respectively.

Turning to `CCCCCCCCCCCCCCCCCCCC1OC(C)(C)OCC1Cc1cc(C(C)(C)C)c(O)c(C(C)(C)C)c1` (centres unmarked) [Example 26], the results for the solubility in data set [1] (setting [3]) and in data set [1] (water) were greater than 50 mg/mL and less than 0.1 mg/mL, respectively.

Consider `CCCCCCCCCCCCCCCCCCCC(O)C(Cc1cc(C(C)(C)C)c(O)c(C(C)(C)C)c1)C(=O)O` (centres unmarked) [Example 27], for which the values for the solubility in data set [1] (setting [3]) and in data set [1] (water) were greater than 1 mg/mL and greater than 10 mg/mL, respectively.

`CCCCCCCCCCCCCCCCCCCC(=O)C(=Cc1cc(C(C)(C)C)c(O)c(C(C)(C)C)c1)C(=O)OCC` [Example 28]: the solubility is greater than 50 mg/mL in data set [1] (setting [3]) and less than 0.1 mg/mL in data set [1] (water).

In the case of `CC(C)CCC[C@@H](C)[C@H]1CC[C@H]2[C@@H]3CC=C4C[C@@H](OCCOC5=C(O)[C@@H]([C@@H](O)CO)OC5=O)CC[C@]4(C)[C@H]3CC[C@]12C` [Example 33], the results for the solubility in data set [1] (setting [3]) and in data set [1] (water) were greater than 1 mg/mL and less than 0.1 mg/mL, respectively. In data set [2], the “Reduction of thrombus formation” value was found to be 13%.

For `CCCCCCCCCCCCCCCCCC(=O)OC[C@H](O)[C@H]1OC(=O)C(OP(=O)(OCC)OCC)=C1O` [Example 34], the solubility in data set [1] (setting [3]) was greater than 1 mg/mL; in data set [1] (water), less than 0.1 mg/mL.

Turning to `CCCCCCCCCCCCCCCCCC(=O)OC[C@H](OC(=O)CCCCCCCCCCCCCCCCC)[C@H]1OC(=O)C(OP(=O)(OCC)OCC)=C1O` [Example 35], the solubility in data set [1] (setting [3]) is greater than 1 mg/mL; in data set [1] (water), less than 0.1 mg/mL.

With `CCCCCCCCCCCCCCCCCCC(COCCOC1=C(O)C(C(O)CO)OC1=O)COCCOC1=C(O)C(C(O)CO)OC1=O` (centres unmarked) [Example 36], in data set [1], the “suitability for use in aqueous oil emulsions owing to solubility properties” value is reported as “outstandingly suitable for use in aqueous oil emulsions”. Moreover, the solubility in data set [1] (setting [3]) and in data set [1] (water) was greater than 10 mg/mL each time. Besides, the “Reduction of thrombus formation” value in data set [2] was 17%.

`CCCCCCCCCCCCCCCCCCP(=O)(OC1=C(O)C([C@@H](O)CO)OC1=O)OC1=C(O)C([C@@H](O)CO)OC1=O` (some centres unmarked) [Example 37]: the values for the solubility in data set [1] (setting [3]) and in data set [1] (water) were greater than 1 mg/mL and greater than 10 mg/mL, respectively.

Regarding `CC(C)CCCC(C)C1CC[C@H]2C3CC=C4CC(OC(=O)CCCCC(S)CCS)CC[C@]4(C)[C@H]3CC[C@]12C` (some centres unmarked) [Example 46], the solubility in data set [1] (setting [3]) is greater than 50 mg/mL; in data set [1] (water), less than 0.1 mg/mL.

On to `CC(CCC(=O)NCCCNC(=O)CCCCC(S)CCS)C1CC[C@H]2C3CC[C@@H]4C[C@H](O)CC[C@]4(C)[C@H]3C[C@H](O)[C@]12C` (some centres unmarked) [Example 48], for which the solubility in data set [1] (setting [3]) is greater than 50 mg/mL; in data set [1] (water), less than 0.1 mg/mL.

For the compound `CC(C)CCCC(C)C1CC[C@H]2C3CC=C4CC(OC(=O)CCCCC5CCSS5)CC[C@]4(C)[C@H]3CC[C@]12C` (some centres unmarked) [Example 53], the solubility in data set [1] (setting [3]) was greater than 50 mg/mL; in data set [1] (water), less than 0.1 mg/mL.

In the case of `O=C(O)c1cc(O)c(O)c(O)c1` [Gallic acid, reference compound], the results for the solubility in data set [1] (setting [3]) and in data set [1] (water) were less than 0.1 mg/mL and greater than 10 mg/mL, respectively.

The solubility is the dissolved amount per volume that the medium holds.
